Experimental data from patent publication US20060079453A1, “Hla binding peptides and their uses” (priority 2002, published 2006).
Read-outs that look alike come from different tables or passages of the source. No end group written: not given here.

Assays:
HLA-A*2902 = HLA-A*2902 (Homo sapiens, UniProt P04439, A270S/D101N/D185E/E176V/E277Q/E87Q/F33T/G231S/H175R/I121M/I218V/I322F/K168Q/L300P/L318F/M331R/P208A/P217A/Q86L/T323A/T345S/V100A/V358M); experiment: MHC molecular binding / Capture assay, IC50: A*2902
HLA-A*3002 = HLA-A*3002 (Homo sapiens, UniProt P04439, D101N/D140H/D185E/E176R/F33S/G80R/H175R/K168Q/Q94H/R138E/R41S/V100E); experiment: biochemical; format: binding
HLA-A*2301 = HLA-A*2301 (Homo sapiens, UniProt P04439, D101N/D140Y/D185E/E176V/E190D/F33S/G103R/G107R/H175R/I119L/I121M/I306V/K168Q/K335N/L105A/L300P/N151K/N90K/P307H/Q86E/Q94H/R106L/R138H/R89G/T104I/T345S/V100E/W191G/Y123F); experiment: biochemical; format: binding
HLA-A*0203 = HLA-A*0203 (Homo sapiens, UniProt P04439, A173T/D140Y/D185E/D98H/E277Q/G131W/G231S/I119V/I121R/I166T/I218V/L180W/L300P/L318F/N151K/N90K/P208A/P217A/Q86G/Q94H/R138H/R169H/T345S); experiment: biochemical; format: binding
HLA-A*0202 = HLA-A*0202 (Homo sapiens, UniProt P04439, D140Y/D185E/D98H/E176V/E277Q/G131W/G231S/I119L/I121R/I166T/I218V/L180W/L300P/L318F/N151K/N90K/P208A/P217A/Q67R/Q86G/Q94H/R138H/R169H/T345S); experiment: biochemical; format: binding
HLA-A*6802 = HLA-A*6802 (Homo sapiens, UniProt P04439, A269V/D140Y/D185E/E176V/E277Q/E87N/F33Y/G231S/I121R/I166T/I218V/L180W/L300P/L318F/N151K/P208A/P217A/Q86R/R138H/R169H/S129P/T345S/V36M); experiment: biochemical; format: binding
HLA-A*0201 = HLA-A*0201 (Homo sapiens, UniProt P04439, D140Y/D185E/D98H/E176V/E277Q/G131W/G231S/I119V/I121R/I166T/I218V/L300P/L318F/N151K/N90K/P208A/P217A/Q86G/Q94H/R138H/R169H/T345S); experiment: biochemical; format: binding
HLA-A*0206 = HLA-A*0206 (Homo sapiens, UniProt P04439, D140Y/D185E/D98H/E176V/E277Q/F33Y/G131W/G231S/I119V/I121R/I166T/I218V/L300P/L318F/N151K/N90K/P208A/P217A/Q86G/Q94H/R138H/R169H/T345S); experiment: biochemical; format: binding
[1] = A*0203 binding affinity (expressed as an IC50)
[2] = A*0202 binding affinity (expressed as an IC50)
[3] = A*6802 binding affinity (expressed as an IC50)
[4] = A*0201 binding affinity (expressed as an IC50)
[5] = A*0206 binding affinity (expressed as an IC50)

Compound | IC50 (HLA-A*2301) [nM] | IC50 (HLA-A*0203; [1]) [nM] | IC50 (HLA-A*0202; [2]) [nM] | IC50 (HLA-A*6802; [3]) [nM] | IC50 (HLA-A*0201; [4]) [nM] | IC50 (HLA-A*0206; [5]) [nM] | also measured
TYLPTNASL | 7.8 | – | – | – | – | – | IC50 (HLA-A*2902; A*2902 binding affinity (IC50)): 106000 nM; IC50 (HLA-A*3002; A*3002 binding affinity (IC50)): 8240 nM
TYGPGPGSLF | 8.7 | – | – | – | – | – | IC50 (HLA-A*2902; A*2902 binding affinity (IC50)): 7230 nM
CC(C)C[C@H](NC(=O)[C@H](CCCNC(=N)N)NC(=O)[C@H](CC(C)C)NC(=O)[C@@H](NC(=O)[C@H](C)NC(=O)[C@@H](NC(=O)CNC(=O)[C@H](CC(=O)O)NC(=O)[C@H](CC(C)C)NC(=O)[C@@H](N)CC(C)C)[C@@H](C)O)[C@@H](C)O)C(=O)O | – | 201 | 1.9 | > 421000 | 180 | 841 | –
CC[C@H](C)[C@H](N)C(=O)N[C@@H](CCSC)C(=O)N[C@H](C(=O)N[C@@H](CC(C)C)C(=O)N[C@@H](CO)C(=O)N[C@@H](Cc1ccccc1)C(=O)N[C@@H](CC(C)C)C(=O)N[C@@H](Cc1ccccc1)C(=O)O)C(C)C | 7.5 | – | – | – | – | – | IC50 (HLA-A*3002): 30000 nM
SLLNGPGPGV | – | 14 | 3.8 | 45 | 65 | 63 | –
FLKEKGGLDGV | – | – | – | – | – | – | IC50 (HLA-A*0203): 11 nM; IC50 (HLA-A*0202): 3.7 nM; IC50 (HLA-A*6802): 3810 nM; IC50 (HLA-A*0201): 332 nM; IC50 (HLA-A*0206): 3210 nM
TYGPGPGSLSF | 1.7 | – | – | – | – | – | IC50 (HLA-A*2902; A*2902 binding affinity (IC50)): 9850 nM; IC50 (HLA-A*3002; A*3002 binding affinity (IC50)): 47200 nM
VYDFAFRDLCI | 8.9 | – | – | – | – | – | IC50 (HLA-A*2902; A*2902 binding affinity (IC50)): 62200 nM; IC50 (HLA-A*3002; A*3002 binding affinity (IC50)): 35700 nM
VYQFAFKDLCI | 1.9 | – | – | – | – | – | IC50 (HLA-A*2902; A*2902 binding affinity (IC50)): 49300 nM; IC50 (HLA-A*3002; A*3002 binding affinity (IC50)): 3480 nM
FYSKVSEF | 18 | – | – | – | – | – | IC50 (HLA-A*3002; A*3002 binding affinity (IC50)): 66700 nM
PVPLQLPPV | – | – | – | – | – | – | IC50 (HLA-A*0203): 12600 nM; IC50 (HLA-A*0202): > 7340 nM; IC50 (HLA-A*6802): > 15600 nM; IC50 (HLA-A*0201): 10000 nM; IC50 (HLA-A*0206): 81 nM
GVLGWSPQV | – | – | – | – | – | – | IC50 (HLA-A*0203): 389 nM; IC50 (HLA-A*0202): 157 nM; IC50 (HLA-A*6802): 9430 nM; IC50 (HLA-A*0201): 22 nM; IC50 (HLA-A*0206): 28 nM
MYGPGPGGSVF | 5.4 | – | – | – | – | – | IC50 (HLA-A*2902; A*2902 binding affinity (IC50)): 48400 nM; IC50 (HLA-A*3002; A*3002 binding affinity (IC50)): 32000 nM
RTLHDLCQA | – | 678 | 34 | 61600 | 8120 | 96 | –
CC(C)C[C@H](NC(=O)[C@H](CC(C)C)NC(=O)[C@H](C)NC(=O)[C@H](CC(C)C)NC(=O)[C@H](CC(C)C)NC(=O)[C@H](CC(C)C)NC(=O)CNC(=O)[C@H](Cc1c[nH]c2ccccc12)NC(=O)[C@@H](N)CCCNC(=N)N)C(=O)O | 100 | – | – | – | – | – | IC50 (HLA-A*2902): 61300 nM; IC50 (HLA-A*3002): 300 nM
KLTPFCVTL | – | – | – | – | – | – | IC50 (HLA-A*0203): 28 nM; IC50 (HLA-A*0202): 0.37 nM; IC50 (HLA-A*6802): 11800 nM; IC50 (HLA-A*0201): 87 nM; IC50 (HLA-A*0206): 78 nM
AYSSWMYSY | 21 | – | – | – | – | – | IC50 (HLA-A*3002; Binding affinity to A*3002 (expressed as an IC50)): 4.9 nM

Compound | IC50 (HLA-A*2301) [nM] | IC50 (HLA-A*0203; [1]) [nM] | IC50 (HLA-A*0202; [2]) [nM] | IC50 (HLA-A*6802; [3]) [nM] | IC50 (HLA-A*0201; [4]) [nM] | IC50 (HLA-A*0206; [5]) [nM] | also measured
IISAVVGFL | – | 4.8 | 1 | 77 | 747 | 234 | –
RYLSKISEY | 98 | – | – | – | – | – | IC50 (HLA-A*2902): 4250 nM; IC50 (HLA-A*3002): 1.1 nM
TLGPGPGHL | – | 66 | 35 | 27900 | 15000 | 12100 | –
VLAKEGPGPGL | – | 37 | 6.9 | 51000 | 1890 | 59000 | –
MTSNPPVPV | – | 0.8 | 29 | 1.1 | 22 | 81 | –
GLGAVSRDL | – | – | – | – | – | – | IC50 (HLA-A*0203): 1730 nM; IC50 (HLA-A*0202): 436 nM; IC50 (HLA-A*6802): > 16700 nM; IC50 (HLA-A*0201): 18700 nM; IC50 (HLA-A*0206): > 10400 nM
MTGNPPVPV | – | 23 | 158 | 0.84 | 2020 | 35 | –
RVLPPNWKY | > 49000 | – | – | – | – | – | IC50 (HLA-A*3002): 3 nM
TYLPGPGPGSF | 2.2 | – | – | – | – | – | IC50 (HLA-A*2902; A*2902 binding affinity (IC50)): 56200 nM
YLGPGPGAGI | – | 4.2 | 1 | 315 | 161 | 548 | –
LQLPPLERLTV | – | – | – | – | – | – | IC50 (HLA-A*0203): 6270 nM; IC50 (HLA-A*0202): 4540 nM; IC50 (HLA-A*6802): > 61100 nM; IC50 (HLA-A*0201): 159 nM; IC50 (HLA-A*0206): 52 nM
RYQDPQNYEL | 124 | – | – | – | – | – | –
VLFLQMMNV | – | 2.7 | 1.8 | 323 | 31 | 9.5 | –
KITPLCVTL | – | 528 | 36 | 883 | 461 | 59 | –
ELVSEFSRV | – | 53 | 969 | 23 | 8180 | 197 | –
YLLTGPGPGI | – | 59 | 15 | 5680 | 42 | 60 | –
KTKDIVNGL | > 49000 | – | – | – | – | – | IC50 (HLA-A*3002; A*3002 binding affinity (IC50)): 164 nM
